Results published in paper PMC12736255, “Reinvestigating Pyrrol-2-One-Based Compounds: From Antimicrobial Agents to Promising Antitumor Candidates” (Pharmaceuticals, 2025).

What was measured:
BT-549 = experiment: NCI-60 5-dose screen; format: cell-based, human; settings: for GI50 / CC50: Homo sapiens; for CC50: read-out: LC50 (the source's name)
CAKI-1 = experiment: NCI-60 5-dose screen; format: cell-based, human; settings: for GI50 / CC50: Homo sapiens; for CC50: read-out: LC50 (the source's name)
CCRF-CEM = experiment: NCI-60 5-dose screen; format: cell-based; settings: Homo sapiens; for CC50: read-out: LC50 (the source's name)
T-47D = experiment: NCI-60 5-dose screen; format: cell-based, human; settings: for GI50 / CC50: Homo sapiens, T47D; for CC50: read-out: LC50 (the source's name)
SR = experiment: NCI-60 5-dose screen; format: cell-based, human; settings: for GI50 / CC50: Homo sapiens; for CC50: read-out: LC50 (the source's name)
U-118MG = experiment: CellTiter-Glo 2.0 cytotoxicity, glioblastoma; format: cell-based, human; settings: 50 µM, 24 h
Protocol: (§1) Cytotoxicity of compounds was assessed using the CellTiter-Glo® 2.0 Assay (Promega, Madison, WI, USA) on human gingival fibroblasts (HGF), osteosarcoma (HOS and MG-63) and glioblastoma (LN-229 and U-118MG) cells, according to the manufacturer’s instructions. HGF, HOS, MG-63 and U-118MG cells were purchased from Cytion GmbH, Eppelheim, Germany, and LN-229 (CRL-2611) from the American Type Culture Collection (ATCC), Manassas, VA, USA. Cells were seeded (50,000 cells/mL—HGF, 100,000 cells/mL—tumor cells) into 96-well opaque white tissue culture-treated plates and allowed to adhere overnight in αMEM medium with 10% fetal bovine serum and 1% antibiotic-antimycotic (all from PAN—Biotech GmbH, Aidenbach, Germany). Cells were incubated with compounds (10 or 50 µM) for 24 h, then CellTiter-Glo® reagent was added and luminescence was recorded using a FLUOstar® Omega microplate reader (BMG LABTECH, Ortenberg, Germany). The experiments were carried out in triplicate, and the viability of treated cells was expressed as a percentage of the viability of control cells (untreated). Data were represented as means ± standard deviations. Stock solutions of compounds were prepared in DMSO, then diluted in complete cell culture media. […] Data were analyzed with independent two-tailed (Student’s) t-test, considering p < 0.05 statistically significant.

LN-229 = experiment: CellTiter-Glo 2.0 cytotoxicity, glioblastoma; format: cell-based, human; settings: LN-229, 24 h
Protocol: as §1

NCI-H226 = experiment: NCI-60 5-dose screen; format: cell-based, human; settings: for GI50 / CC50: Homo sapiens; for CC50: read-out: LC50 (the source's name)
M14 = experiment: NCI-60 5-dose screen; format: cell-based, human; settings: for GI50 / CC50: Homo sapiens; for CC50: read-out: LC50 (the source's name)
A498 = experiment: NCI-60 5-dose screen; format: cell-based, human; settings: for GI50 / CC50: Homo sapiens; for CC50: read-out: LC50 (the source's name)
MALME-3M = experiment: NCI-60 5-dose screen; format: cell-based, human; settings: for GI50 / CC50: Homo sapiens, Malme-3M; for CC50: read-out: LC50 (the source's name); for TGI: MALME-3M
HCT-116 = experiment: NCI-60 5-dose screen; format: cell-based, human; settings: for GI50 / CC50: Homo sapiens; for CC50: read-out: LC50 (the source's name)
OVCAR-3 = experiment: NCI-60 5-dose screen; format: cell-based, human; settings: for GI50 / CC50: Homo sapiens; for CC50: read-out: LC50 (the source's name)
LOX IMVI = experiment: NCI-60 5-dose screen; format: cell-based, human; settings: for GI50 / CC50: Homo sapiens; for CC50: read-out: LC50 (the source's name)
SNB-75 = experiment: NCI-60 5-dose screen; format: cell-based, human; settings: for GI50 / CC50: Homo sapiens; for CC50: read-out: LC50 (the source's name)
SF-268 = experiment: NCI-60 5-dose screen; format: cell-based, human; settings: for GI50 / CC50: Homo sapiens; for CC50: read-out: LC50 (the source's name)
SK-OV-3 = experiment: NCI-60 5-dose screen; format: cell-based, human; settings: for GI50 / CC50: Homo sapiens; for CC50: read-out: LC50 (the source's name)
MOLT-4 = experiment: NCI-60 5-dose screen; format: cell-based, human; settings: for GI50 / CC50: Homo sapiens; for CC50: read-out: LC50 (the source's name)
OVCAR-4 = experiment: NCI-60 5-dose screen; format: cell-based, human; settings: for GI50 / CC50: Homo sapiens; for CC50: read-out: LC50 (the source's name)
HOP-62 = experiment: NCI-60 5-dose screen; format: cell-based, human; settings: for GI50 / CC50: Homo sapiens; for CC50: read-out: LC50 (the source's name)
U251 = experiment: NCI-60 5-dose screen; format: cell-based, human; settings: for GI50 / LC50 (50% lethal concentration): Homo sapiens, U-251
HT29 = experiment: NCI-60 5-dose screen; format: cell-based, human; settings: for GI50 / CC50: Homo sapiens; for GI50: HT-29; for CC50: HT-29, read-out: LC50 (the source's name)
SW-620 = experiment: NCI-60 5-dose screen; format: cell-based, human; settings: for GI50 / CC50: Homo sapiens; for CC50: read-out: LC50 (the source's name)
[1] = tested on: Gram-positive and Gram-negative bacteria; design: method as in PMID 38398524; settings: cited from earlier work
[2] = CellTiter-Glo 2.0 cytotoxicity, normal fibroblasts; format: cell-based, human; settings: human, human gingival fibroblasts (HGF), read-out: cell viability
Protocol: as §1

fungal strains = tested on: fungal strains; design: method as in PMID 38398524; settings: cited from earlier work

## O=C1C(Nc2ccc(I)cc2)=CC(c2ccc(C(F)(F)F)cc2)N1c1ccc(I)cc1 (stereo not shown) [3e]
BT-549
  TGI: >100 µM
  GI50: 9.61 µM
  CC50: > 100 µM
CAKI-1
  TGI: >100 µM
  GI50: 3.72 µM
  CC50: > 100 µM
CCRF-CEM
  GI50: 3.35 µM
  CC50: > 100 µM
T-47D
  TGI: 7.57 µM
  GI50: 2.74 µM
  CC50: > 100 µM
SR
  TGI: >100 µM
  GI50: 2.84 µM
  CC50: > 100 µM
U-118MG
  cytotoxicity (activity in words): moderate activity
LN-229
  cytotoxicity (activity in words): ineffective
NCI-H226
  TGI: >100 µM
  GI50: 8.48 µM
  CC50: > 100 µM
M14
  TGI: >100 µM
  GI50: 8.94 µM
  CC50: > 100 µM
A498
  TGI: 3.56 µM
  GI50: 1.95 µM
  CC50: 6.5 µM
MALME-3M
  GI50: 2 µM
  CC50: 9.34 µM
  TGI: 4.32 µM
HCT-116
  TGI: >100 µM
  GI50: 5.92 µM
  CC50: > 100 µM
OVCAR-3
  TGI: >100 µM
  GI50: 7.48 µM
  CC50: > 100 µM
LOX IMVI
  TGI: >100 µM
  GI50: > 100 µM
  CC50: > 100 µM
SNB-75
  TGI: 5.06 µM
  GI50: 2.6 µM
  CC50: 9.85 µM
SF-268
  TGI: >100 µM
  GI50: 4.66 µM
  CC50: > 100 µM
SK-OV-3
  TGI: >100 µM
  GI50: > 100 µM
  CC50: > 100 µM
MOLT-4
  TGI: >100 µM
  GI50: 2.92 µM
  CC50: > 100 µM
OVCAR-4
  TGI: 4.41 µM
  GI50: 1.82 µM
  CC50: > 100 µM
HOP-62
  TGI: >100 µM
  GI50: > 100 µM
  CC50: > 100 µM
U251
  TGI: >100 µM
  GI50: 8.97 µM
  LC50 (50% lethal concentration): > 100 µM
HT29
  TGI: >100 µM
  GI50: > 100 µM
  CC50: > 100 µM
SW-620
  TGI: >100 µM
  GI50: > 100 µM
  CC50: > 100 µM

## O=C1C(Nc2ccc(I)cc2)=CC(c2ccco2)N1c1ccc(I)cc1 (stereo not shown) [3m]
[1]
  antibacterial activity (in words): highest antibacterial activity

## COc1cc(OC)c(C2C=C(Nc3ccc(I)cc3)C(=O)N2c2ccc(I)cc2)cc1OC (stereo not shown) [3k]
U-118MG
  cytotoxicity (activity in words): moderate activity
LN-229
  cytotoxicity (activity in words): ineffective
[2]
  viability at 24 h, 50 µM: 64%

## N#Cc1ccc(C2C=C(Nc3ccc(I)cc3)C(=O)N2c2ccc(I)cc2)cc1 (stereo not shown) [3l]
Fungal strains
  antifungal activity (in words): most effective against fungal strains
BT-549
  TGI: >100 µM
  GI50: 5.81 µM
  CC50: > 100 µM
CAKI-1
  TGI: >100 µM
  GI50: 9.48 µM
  CC50: > 100 µM
CCRF-CEM
  GI50: 3.26 µM
  CC50: > 100 µM
T-47D
  TGI: >100 µM
  GI50: 7.13 µM
  CC50: > 100 µM
SR
  TGI: >100 µM
  GI50: 6.28 µM
  CC50: > 100 µM
U-118MG
  cytotoxicity (activity in words): moderate activity
LN-229
  cytotoxicity (activity in words): ineffective
NCI-H226
  TGI: >100 µM
  GI50: 4.42 µM
  CC50: > 100 µM
M14
  TGI: >100 µM
  GI50: 7.24 µM
  CC50: > 100 µM
A498
  TGI: >100 µM
  GI50: 2.99 µM
  CC50: > 100 µM
MALME-3M
  GI50: 2.07 µM
  CC50: > 100 µM
  TGI: >100 µM
HCT-116
  TGI: >100 µM
  GI50: 3.83 µM
  CC50: > 100 µM
OVCAR-3
  TGI: >100 µM
  GI50: 4.72 µM
  CC50: > 100 µM
LOX IMVI
  TGI: >100 µM
  GI50: 3.38 µM
  CC50: > 100 µM
SNB-75
  TGI: 3.42 µM
  GI50: 1.34 µM
  CC50: 8.76 µM
SF-268
  TGI: >100 µM
  GI50: 4.69 µM
  CC50: > 100 µM
SK-OV-3
  TGI: >100 µM
  GI50: 6.41 µM
  CC50: > 100 µM
MOLT-4
  TGI: >100 µM
  GI50: 2.11 µM
  CC50: > 100 µM
OVCAR-4
  TGI: 1.69 µM
  GI50: 0.422 µM
  CC50: 4.82 µM
HOP-62
  TGI: >100 µM
  GI50: 5.21 µM
  CC50: > 100 µM
U251
  TGI: >100 µM
  GI50: 4.17 µM
  LC50 (50% lethal concentration): > 100 µM
HT29
  TGI: >100 µM
  GI50: 9.43 µM
  CC50: > 100 µM
SW-620
  TGI: >100 µM
  GI50: 5.91 µM
  CC50: > 100 µM
